Measured values taken from US20020032193A1, “Use of potassium channel openers for the treatment of insulitis” (priority 2000, published 2002).

How the values were obtained:
Rat islets [1] = test: Insulin secretion and islet insulin content after streptozotocin exposure; type: cell-based, Sprague-Dawley rats; conditions: 24 hours; for insulin content compared to islets incubated with STZ alone / insulin secretion compared to islets incubated with STZ alone: pre-incubated with KATP channel opener, then 0.5 mM STZ
Experimental: (§1) Pancreata from Sprague-Dawley rats were collagenase digested and islets collected with a braking pipette as previously described (Sandler S et al., Endocrinology, 1987;121:1424-31). Islets were precultured free floating in RPMI 1640 medium with 10% (v/v) fetal calf serum (FCS) and 11 mM glucose for 3 days in 5% CO2 at 37° C. before experiments. Medium was changed two times during preculture. Islets were then transferred to sterile Petri dishes in KRBH (Krebs-Ringer bicarbonate with HEPES) medium with 2 mg/mL bovine serum albumin (BSA) and 5.6 mM glucose.
(§2) Stock solutions of test compounds dissolved in dimethyl sulphoxide were prepared and added to the Petri dishes. Islets were incubated in 5% CO2 at 37° C. for 30 minutes with or without test compounds and STZ in 0.9% NaCl was then added to a final concentration of 0.5 mM. Dry powder of alloxan was diluted to a stock of 50 mM just before the addition to the Petri dishes to a final concentration of 0.5 mM. The incubation continued for another 30 minutes and was terminated by the addition of 1 mL of cold KRBH. The islets were then washed twice in KRBH and studied for morphology and insulin secretion, or cultured for 2 or 24 hours in RPMI with 10% FCS and 11 mM glucose prior to morphological and biochemical examinations.
(§3) Triplicates of five islets were transferred to 200 μl of KRBH with 2 mg/mL BSA and 16.7 mM glucose and incubated for 60 minutes in 5% CO2 at 37° C. Islets from each condition were then pooled and sonicated in 200 μl of redestilled water. A 50 μl aliquot of the homogenate was mixed with 125 μl acid ethanol (0.18 M HCl in 95% ethanol) and insulin extracted overnight. Insulin concentration in the sonicate and the culture medium was determined with radioimmunoassay.

Rat islets [2] = test: Glucose oxidation after streptozotocin exposure; type: cell-based, Sprague-Dawley rats
Experimental: as §1
as §2, with “The islets were then washed twice in KRBH and studied for morphology and insulin secretion, or cultured for 2 or 24 hours in RPMI with 10% FCS and 11 mM glucose prior to morphological and biochemical examinations.” left out
Groups of 10 islets were transferred to glass vials with 100 μl KRBH supplemented with D-[U^14C]glucose and nonradioactive glucose to a final concentration of 16.7 mM glucose. […] Scintillation fluid was then added to each flask and the radioactivity counted in a liquid scintillation counter.

Rat islets [3] = test: Islet recovery after streptozotocin exposure; type: cell-based, Sprague-Dawley rats
Experimental: as §1
as §2, with “The islets were then washed twice in KRBH and studied for morphology and insulin secretion, or cultured for 2 or 24 hours in RPMI with 10% FCS and 11 mM glucose prior to morphological and biochemical examinations.” left out
About 100 islets per condition were carefully transferred to a glass tube and spun down at 800 rpm for 1 minute. […] For estimation of islet recovery, 30 islets from each condition were transferred to Petri dishes as described above and the remaining islets counted after 24 hours.

Rat islets [4] = test: Proinsulin and total protein biosynthesis after streptozotocin exposure; type: cell-based, Sprague-Dawley rats
Experimental: as §1, §2
For each condition duplicate samples of 20 islets were transferred to multiwell plates containing 100 μl KRBH with L-[4.5-^3H]leucine (50 μCi/ml), 2 mg/mL BSA and 16.7 mM glucose and incubated for 120 minutes in 5% C02 at 37° C. Islets were then washed in Hanks' solution supplemented with 10 mM nonradioactive leucine and subsequently sonicated in 200 μl of redestilled water. A 50 μl fraction of the aqueous homogenate was incubated for 90 minutes with insulin antibodies coupled to Sepharose beads to separate proinsulin from other labelled proteins (15). Total protein biosynthesis was obtained by precipitating the labelled proteins with trichloroacetic acid (TCA). The antibody bound and TCA precipitable radioactivity were determined in a liquid scintillation counter.

Rat islets [5] = test: Glucose oxidation after alloxan exposure; type: cell-based, Sprague-Dawley rats; conditions: for glucose oxidation rate, of control: islets treated with 0.5 mM alloxan in the presence of opener, 24 hours
Experimental: as §1, §2
Groups of 10 islets were transferred to glass vials with 100 μl KRBH supplemented with D-[U^14C]glucose and nonradioactive glucose to a final concentration of 16.7 mM glucose. Triplicate samples were used. The vials were suspended in scintillation flasks, gassed with 5% CO2 and sealed airtight. The flasks were then shaken for 90 minutes at 37° C. Metabolism was stopped by injection of 100 μl of 0.05 mM antimycin A into the center vial. Immediately thereafter 250 μl hyamine hydroxide was injected into the outer flask. CO2 was released from the incubation medium by injecting 100 μl of 0.4 M Na2HPO4 solution (pH 6.0) into the center vial. […] Scintillation fluid was then added to each flask and the radioactivity counted in a liquid scintillation counter.

Rat islets [6] = test: Insulin release after alloxan exposure; type: cell-based, Sprague-Dawley rats; conditions: for counteraction of alloxan-induced reduction of insulin release: 0.3 mM opener, simultaneous incubation with 0.5 mM alloxan
Experimental: as §1, §2, §3

ischemic heart = conditions: Garlid KD et al., Circulation Res 1997; cited from earlier work
[7] = remaining islets after STZ 0.5 mM
[8] = recovered STZ islets at 24 hours
[9] = 0.3 mM test compound + 0.5 mM STZ

CN(N=O)C(=O)N[C@H]1C(O)O[C@H](CO)[C@@H](O)[C@@H]1O (mixture of isomers) [STZ, streptozotocin]
insulin content, of control (Rat islets [1]; [7]): 50% | insulin secretion, of control (Rat islets [1]; [7]): 60% | rate of glucose oxidation, of control (Rat islets [2]; islets after STZ 0.5 mM, 24 hours): 16% | islet loss (Rat islets [3]; STZ 0.5 mM for 30 minutes, then 24 hours culture): 40% | proinsulin biosynthesis, of control (Rat islets [4]; [8]): 35% | total protein biosynthesis, of control (Rat islets [4]; [8]): 51% | proinsulin/total protein biosynthesis ratio (Rat islets [4]; recovered STZ islets at 24 hours, 23% in control islets): 15% | insulin biosynthesis, of control (Rat islets [4]; remaining islets after STZ 0.5 mM, 24 hours): 35%

CC(C)NC1=NS(=O)(=O)c2sc(Cl)cc2N1 [6-Chloro-3-isopropylamino-4H-thieno[3,2-e]-1,2,4-thiadiazine 1,1-dioxide]
glucose oxidation rate, of control (Rat islets [5]): did not differ from control | counteraction of alloxan-induced reduction of insulin release (Rat islets [6]): fully counteracted | insulin content compared to islets incubated with STZ alone (Rat islets [1]): higher | insulin secretion compared to islets incubated with STZ alone (Rat islets [1]): higher | glucose oxidation rate compared to islets incubated with STZ alone (Rat islets [2]; [9]): higher | islet loss (Rat islets [3]; 0.3 mM test compound preincubated 30 minutes + 0.5 mM STZ, 24 hours culture): no islet loss | insulin biosynthesis compared to islets incubated with STZ alone (Rat islets [4]; [9]): higher

O=C1NC(=O)C(=O)C(=O)N1 [alloxan]
decrease of glucose oxidation rate (Rat islets [5]; 0.5 mM alloxan, after 24 hours): 51% | reduction of insulin release (Rat islets [6]; 0.5 mM alloxan): 31%

CC1(C)Oc2ccc(C#N)cc2C(N2CCCC2=O)C1O (stereo not drawn) [cromakalim]
effect in ischemic heart (ischemic heart): beneficial, cardioprotective effect

CC1=NS(=O)(=O)c2cc(Cl)ccc2N1 [diazoxide]
glucose oxidation rate, of control (Rat islets [5]): 73% | counteraction of alloxan-induced reduction of insulin release (Rat islets [6]): fully counteracted | insulin content compared to islets incubated with STZ alone (Rat islets [1]): higher | insulin secretion compared to islets incubated with STZ alone (Rat islets [1]): higher | effect in ischemic heart (ischemic heart): beneficial, cardioprotective effect

CC(N/C(=N\C#N)Nc1ccncc1)C(C)(C)C (stereo not drawn) [pinacidil]
effect in ischemic heart (ischemic heart): beneficial, cardioprotective effect
